Reference: PubChem BioAssay (NCI)
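The compound was tested at five concentrations on cells cultured in 96-well plates, with a 48-hour exposure period. The concentration for full growth arrest is given as TGI.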

What was measured:
Test in all cases: NCI anticancer screen, dose series, 48 h
[1] = system: 786-0 renal
[2] = system: BT-549 breast
[3] = system: HCT-116 colon
[4] = system: HOP-92 NSCLC
[5] = system: HS 578T breast
[6] = system: LOX IMVI melanoma
[7] = system: MALME-3M melanoma
[8] = system: NCI-H226 lung
[9] = system: NCI-H460 lung
[10] = system: NCI-H522 lung
[11] = system: NCI/ADR-RES ovarian
[12] = system: OVCAR-3 ovarian
[13] = system: OVCAR-4 ovarian
[14] = system: OVCAR-8 ovarian
[15] = system: SK-MEL-28 melanoma
[16] = system: SNB-19 CNS
[17] = system: SNB-75 CNS
[18] = system: SR leukemia
[19] = system: U251 CNS
[20] = system: UACC-62 melanoma

Row | Compound | TGI [1] [µM] | TGI [2] [µM] | TGI [3] [µM] | TGI [4] [µM] | TGI [5] [µM] | TGI [6] [µM] | TGI [7] [µM] | TGI [8] [µM] | TGI [9] [µM] | TGI [10] [µM] | TGI [11] [µM] | TGI [12] [µM] | TGI [13] [µM] | TGI [14] [µM] | TGI [15] [µM] | TGI [16] [µM] | TGI [17] [µM] | TGI [18] [µM] | TGI [19] [µM] | TGI [20] [µM]
1 | c1ccc(N/N=C2\CC(c3ccccc3)Oc3ccccc32)cc1 (stereo unspecified) | 66.8 | > 100 | > 100 | > 100 | > 100 | > 100 | > 100 | > 100 | > 100 | 53.6 | > 100 | > 100 | > 100 | > 100 | > 100 | > 100 | 75.2 | > 100 | > 100 | > 100
2 | COC(=O)C1([C@@H]2C[C@@H](O)[C@]3(C)CC/C=C(\C)CCC[C@H](C)[C@H](O)[C@@H]2O3)CC1 | > 100 | > 100 | > 100 | > 100 | > 100 | > 100 | > 100 | 69.2 | > 100 | > 100 | > 100 | > 100 | > 100 | > 100 | > 100 | > 100 | 17.8 | 95.3 | > 100 | > 100
3 | CN(C)c1ccc(N=Nc2cccc3ccoc23)cc1 | > 100 | > 100 | > 100 | > 100 | > 100 | > 100 | > 100 | > 100 | > 100 | > 100 | > 100 | > 100 | > 100 | > 100 | > 100 | > 100 | > 100 | > 76.1 | > 100 | > 100
4 | CCOC(=O)CSc1nc2ccccc2c(=O)n1N | > 100 | > 100 | > 100 | > 100 | > 100 | > 100 | > 100 | > 100 | > 100 | > 100 | > 100 | > 100 | > 100 | > 100 | > 100 | > 100 | > 100 | > 100 | > 100 | > 100
5 | COC(=O)[C@H](CCSC)NC(=O)c1ccc(CNC(=O)/C=C/c2cccc(Oc3ccccc3)c2)cc1 | > 100 | > 100 | > 100 | 28.1 | > 100 | > 100 | 37.8 | > 62.9 | > 100 | > 100 | > 100 | > 93.6 | > 90.6 | > 100 | 34.2 | > 100 | > 100 | > 100 | > 100 | 38.2
6 | CNC(=O)Nc1cc2c3c(c1)CCCN3CCC2 | > 10 | > 10 | > 10 | > 10 | > 10 | > 10 | > 10 | > 10 | > 10 | > 10 | > 10 | > 10 | > 10 | > 10 | > 10 | > 10 | > 10 | > 10 | > 10 | > 10
7 | O=C(O)CN1CCNCCN(CC(=O)O)CC1 | > 100 | > 100 | > 37.3 | > 100 | > 100 | > 100 | > 100 | > 42.9 | > 64.4 | 30.7 | 7.3 | > 100 | > 100 | 11.6 | > 100 | > 100 | > 100 | > 29.4 | > 100 | > 100
8 | CCOC(=O)C(NNS(=O)(=O)c1ccc(C)cc1)S(=O)(=O)C(F)(F)C(F)(F)C(F)(F)C(F)(F)F (stereo unspecified) | > 100 | > 100 | > 100 | > 100 | > 100 | > 100 | > 100 | > 100 | > 100 | > 100 | > 100 | > 100 | > 100 | > 100 | > 100 | > 100 | > 100 | > 100 | > 100 | > 100
9 | CC(C)=CCNc1ncnc2c1ncn2CCC(=O)OC(C)(C)C | > 100 | > 100 | > 100 | > 100 | > 100 | > 100 | > 100 | > 100 | > 100 | > 100 | > 100 | > 100 | 40.4 | > 100 | > 100 | > 100 | > 100 | > 100 | > 100 | > 100
10 | O=C(OCc1ccccc1)N1CCNCCNCC1 | > 100 | > 100 | > 100 | > 100 | > 100 | > 100 | – | > 100 | > 100 | > 100 | > 100 | > 100 | > 100 | > 100 | > 100 | > 100 | – | > 100 | > 100 | > 100
11 | CC(=O)C1(c2ccccc2)CCN(Cn2sc3nc(C)cc(C)c3c2=O)CC1 | 30.6 | > 100 | 52 | > 100 | > 100 | 57.8 | 41.5 | > 100 | 34.1 | 29 | > 100 | > 100 | 48 | 74.6 | 93.1 | > 100 | 57.3 | > 100 | > 100 | > 100
12 | N#Cc1c(C#N)c(-c2cccc([N+](=O)[O-])c2)n(-c2ccccc2)c1N | > 100 | > 100 | > 100 | > 100 | > 100 | > 100 | > 100 | 86.1 | – | > 100 | > 100 | > 100 | > 100 | > 100 | – | > 100 | 61 | > 100 | > 100 | > 100
